The values that follow come from US20080188503A1, “New Compounds II” (AstraZenaca AB, priority 2006, published 2008).

This assay addresses T1, recombinant human GSK3β (Homo sapiens, UniProt P49841).
T1 construct: purchased Dundee University, UK
The assay can be described thus: GSK3β Scintillation Proximity Assay (ATP competition). The assay is classed as biochemical. As to conditions: recombinant human GSK3β SPA; 1 μM ATP, 1 μM biotinylated peptide substrate; Ki calculated with Km of ATP 20 μM. On the procedure:
Determination of ATP Competition in Scintillation Proximity GSK3β Assay.
GSK3β Scintillation Proximity Assay.
The competition experiments were carried out in duplicate with 10 different concentrations of the inhibitors in clear-bottom microtiter plates (Wallac, Finland). A biotinylated peptide substrate, Biotin-Ala-Ala-Glu-Glu-Leu-Asp-Ser-Arg-Ala-Gly-Ser(PO3H2)-Pro-Gln-Leu (AstraZeneca, Lund), was added at a final concentration of 1 μM in an assay buffer containing 1 mU recombinant human GSK3β (Dundee University, UK), 12 mM morpholinepropanesulfonic acid (MOPS), pH 7.0, 0.3 mM EDTA, 0.01% β-mercaptoethanol, 0.004% Brij 35 (a […] detergent), 0.5% glycerol and 0.5 μg BSA/25 μl. The reaction was initiated by the addition of 0.04 μCi [γ-^33P]ATP (Amersham, UK) and unlabelled ATP at a final concentration of 1 μM and assay volume of 25 μl. After incubation for 20 minutes at room temperature, each reaction was terminated by the addition of 25 μl stop solution containing 5 mM EDTA, 50 μM ATP, 0.1% Triton X-100 and 0.25 mg streptavidin coated Scintillation Proximity Assay (SPA) beads (Amersham, UK). After 6 hours the radioactivity was determined in a liquid scintillation counter (1450 MicroBeta Trilux, Wallac). The inhibition curves were analysed by non-linear regression using GraphPad Prism, USA. The Km value of ATP for GSK3β, used to calculate the inhibition constants (Ki) of the various compounds, was 20 μM.

T1 sequence (P49841 whole entry): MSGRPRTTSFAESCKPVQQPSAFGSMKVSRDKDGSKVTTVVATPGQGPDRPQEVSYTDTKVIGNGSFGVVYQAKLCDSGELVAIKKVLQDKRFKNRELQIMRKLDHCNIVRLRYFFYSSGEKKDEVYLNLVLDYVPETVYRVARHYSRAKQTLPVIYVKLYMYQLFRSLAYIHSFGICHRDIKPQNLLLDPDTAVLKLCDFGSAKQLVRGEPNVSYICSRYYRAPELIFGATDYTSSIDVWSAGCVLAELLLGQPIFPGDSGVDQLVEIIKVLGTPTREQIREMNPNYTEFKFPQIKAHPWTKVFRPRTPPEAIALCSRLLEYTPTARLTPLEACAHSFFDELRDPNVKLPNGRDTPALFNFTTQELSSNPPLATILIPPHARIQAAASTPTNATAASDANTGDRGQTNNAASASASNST

Consider `Cc1ncc(-c2nc(Nc3cncnc3)ncc2F)n1C1CCOCC1` [Example 1, 5-Fluoro-4-[2-methyl-1-(tetrahydro-2H-pyran-4-yl)-1H-imidazol-5-yl]-N-pyrimidin-5-ylpyrimidin-2-amine], for which the Ki – broadly, the dissociation constant of the complex between target and ligand, obtained from inhibition or displacement – was 220 nM.
To `CC(=O)c1cncc(Nc2ncc(F)c(-c3cnc(C)n3C3CCOCC3)n2)c1` [Example 2, 1-[5-({5-Fluoro-4-[2-methyl-1-(tetrahydro-2H-pyran-4-yl)-1H-imidazol-5-yl]pyrimidin-2-yl}amino)pyridin-3-yl]ethanone] belongs 49 nM.
To `COc1cccc(Nc2ncc(F)c(-c3cnc(C)n3C3CCOCC3)n2)n1` [Example 3, 5-Fluoro-N-(6-methoxypyridin-2-yl)-4-[2-methyl-1-(tetrahydro-2H-pyran-4-yl)-1H-imidazol-5-yl]pyrimidin-2-amine] belongs 530 nM; to `Cc1ncc(-c2nc(Nc3ccc(C(F)(F)F)cn3)ncc2F)n1C1CCOCC1` [Example 4, 5-Fluoro-4-[2-methyl-1-(tetrahydro-2H-pyran-4-yl)-1H-imidazol-5-yl]-N-[5-(trifluoromethyl)pyridin-2-yl]pyrimidin-2-amine], 2600 nM; to `Cc1ccc(Nc2ncc(F)c(-c3cnc(C)n3C3CCOCC3)n2)cn1` [Example 5, 5-Fluoro-N-(6-methylpyridin-3-yl)-4-[2-methyl-1-(tetrahydro-2H-pyran-4-yl)-1H-imidazol-5-yl]pyrimidin-2-amine], 28 nM.
For `COc1ccnc(Nc2ncc(F)c(-c3cnc(C)n3C3CCOCC3)n2)c1` [Example 6, 5-Fluoro-N-(4-methoxypyridin-2-yl)-4-[2-methyl-1-(tetrahydro-2H-pyran-4-yl)-1H-imidazol-5-yl]pyrimidin-2-amine], the Ki was 1100 nM.
For the compound `Cc1ncc(-c2nc(Nc3ccc(CN4CCOCC4)nc3)ncc2F)n1C1CCOCC1` [Example 10, 5-Fluoro-4-[2-methyl-1-(tetrahydro-2H-pyran-4-yl)-1H-imidazol-5-yl]-N-[6-(morpholin-4-ylmethyl)pyridin-3-yl]pyrimidin-2-amine], the inhibitory constant (Ki) was 64 nM.
As to `Cc1ncc(-c2nc(Nc3ccc(CN4CCCCC4)nc3)ncc2F)n1C1CCOCC1` [Example 12, 5-Fluoro-4-[2-methyl-1-(tetrahydro-2H-pyran-4-yl)-1H-imidazol-5-yl]-N-[6-(piperidin-1-ylmethyl)pyridin-3-yl]pyrimidin-2-amine], the inhibition constant (Ki) is 260 nM.
Turning to `Cc1ncc(-c2nc(Nc3ccc(CN4CCCN(C)CC4)nc3)ncc2F)n1C1CCOCC1` [Example 13, 5-Fluoro-N-{6-[(4-methyl-1,4-diazepan-1-yl)methyl]pyridin-3-yl}-4-[2-methyl-1-(tetrahydro-2H-pyran-4-yl)-1H-imidazol-5-yl]pyrimidin-2-amine], the Ki was 290 nM.
For `Cc1ncc(-c2nc(Nc3ccc(CN4CCN(c5ncccn5)CC4)nc3)ncc2F)n1C1CCOCC1` [Example 14, 5-Fluoro-4-[2-methyl-1-(tetrahydro-2H-pyran-4-yl)-1H-imidazol-5-yl]-N-{6-[(4 pyrimidin-2-ylpiperazin-1-yl)methyl]pyridin-3-yl}pyrimidin-2-amine], the Ki is 10 nM.
As for `COC[C@@H]1CCCN1Cc1ccc(Nc2ncc(F)c(-c3cnc(C)n3C3CCOCC3)n2)cn1` [Example 15, 5-Fluoro-N-(6-{[(2S)-2-(methoxymethyl)pyrrolidin-1-yl]methyl}pyridin-3-yl)-4-[2-methyl-1-(tetrahydro-2H-pyran-4-yl)-1H-imidazol-5-yl]pyrimidin-2-amine], the Ki is 1300 nM.
To `CC(=O)N1CCCN(Cc2ccc(Nc3ncc(F)c(-c4cnc(C)n4C4CCOCC4)n3)cn2)CC1` [Example 16, N-{6-[(4-Acetyl-1,4-diazepan-1-yl)methyl]pyridin-3-yl}-5-fluoro-4-[2-methyl-1-(tetrahydro-2H-pyran-4-yl)-1H-imidazol-5-yl]pyrimidin-2-amine] belongs 75 nM; to `Cc1ncc(-c2nc(Nc3ccc(CN4CC(C)OC(C)C4)nc3)ncc2F)n1C1CCOCC1` (stereo not drawn) [Example 17, N-{6-[(2,6-Dimethylmorpholin-4-yl)methyl]pyridin-3-yl}-5-fluoro-4-[2-methyl-1-(tetrahydro-2H-pyran-4-yl)-1H-imidazol-5-yl]pyrimidin-2-amine], 760 nM.
Turning to `Cc1ncc(-c2nc(Nc3ccc(CN4CCC(F)(F)CC4)nc3)ncc2F)n1C1CCOCC1` [Example 18, N-{6-[(4,4-Difluoropiperidin-1-yl)methyl]pyridin-3-yl}-5-fluoro-4-[2-methyl-1-(tetrahydro-2H-pyran-4-yl)-1H-imidazol-5-yl]pyrimidin-2-amine], the Ki was 42 nM.
In the case of `Cc1ncc(-c2nc(Nc3ccc(CN4CCCC4)nc3)ncc2F)n1C1CCOCC1` [Example 19, 5-Fluoro-4-[2-methyl-1-(tetrahydro-2H-pyran-4-yl)-1H-imidazol-5-yl]-N-[6-(pyrrolidin-1-ylmethyl)pyridin-3-yl]pyrimidin-2-amine], the inhibitory constant (Ki) was 210 nM.
To `Cc1ncc(-c2nc(Nc3ccc(CNCc4ccc(Cl)nc4)nc3)ncc2F)n1C1CCOCC1` [Example 20, N-[6-({[(6-Chloropyridin-3-yl)methyl]amino}methyl)pyridin-3-yl]-5-fluoro-4-[2-methyl-1-(tetrahydro-2H-pyran-4-yl)-1H-imidazol-5-yl]pyrimidin-2-amine] belongs 37 nM; to `Cc1ncc(-c2nc(Nc3ccc(CN4CCCOCC4)nc3)ncc2F)n1C1CCOCC1` [Example 21, 5-Fluoro-4-[2-methyl-1-(tetrahydro-2H-pyran-4-yl)-1H-imidazol-5-yl]-N-[6-(1,4 oxazepan-4-ylmethyl)pyridin-3-yl]pyrimidin-2-amine], 79 nM; to `COC1CCN(Cc2ccc(Nc3ncc(F)c(-c4cnc(C)n4C4CCOCC4)n3)cn2)CC1` [Example 22, 5-Fluoro-N-{6-[(4-methoxypiperidin-1-yl)methyl]pyridin-3-yl}-4-[2-methyl-1-(tetrahydro-2H-pyran-4-yl)-1H-imidazol-5-yl]pyrimidin-2-amine], 150 nM.
In the case of `Cc1ncc(-c2nc(Nc3ccc(CN4CCCC(CO)C4)nc3)ncc2F)n1C1CCOCC1` (stereo not drawn) [Example 23, (1-{[5-({5-Fluoro-4-[2-methyl-1-(tetrahydro-2H-pyran-4-yl)-1H-imidazol-5-yl]pyrimidin-2-yl}amino)pyridin-2-yl]methyl}piperidin-3-yl)methanol], the Ki is 170 nM.
To `Cc1ncc(-c2nc(Nc3ccc(CNCCCN4CCCC4=O)nc3)ncc2F)n1C1CCOCC1` [Example 24, 1-[3-({[5-({5-Fluoro-4-[2-methyl-1-(tetrahydro-2H-pyran-4-yl)-1H-imidazol-5-yl]pyrimidin-2-yl}amino)pyridin-2-yl]methyl}amino)propyl]pyrrolidin-2-one] belongs 230 nM.
On to `Cc1ncc(-c2nc(Nc3ccc(CN4CCC(N5CCCC5)CC4)nc3)ncc2F)n1C1CCOCC1` [Example 25, 5-Fluoro-4-[2-methyl-1-(tetrahydro-2H-pyran-4-yl)-1H-imidazol-5-yl]-N-{6-[(4 pyrrolidin-1-ylpiperidin-1-yl)methyl]pyridin-3-yl}pyrimidin-2-amine], for which the Ki is 210 nM.
Take `Cc1ncc(-c2nc(Nc3ccc(CN(CCC#N)CC4CCCO4)nc3)ncc2F)n1C1CCOCC1` (stereo not drawn) [Example 26, 3-[{[5-({5-Fluoro-4-[2-methyl-1-(tetrahydro-2H-pyran-4-yl)-1H-imidazol-5-yl]pyrimidin-2-yl}amino)pyridin-2-yl]methyl}(tetrahydrofuran-2-ylmethyl)amino]propanenitrile]: the Ki is 75 nM.
With `Cc1ncc(-c2nc(Nc3ccc(CN4CCC4)nc3)ncc2F)n1C1CCOCC1` [Example 27, N-[6-(Azetidin-1-ylmethyl)pyridin-3-yl]-5-fluoro-4-[2-methyl-1-(tetrahydro-2H-pyran-4-yl)-1H-imidazol-5-yl]pyrimidin-2-amine], the Ki is 330 nM.
For `CCN(CCOC)Cc1ccc(Nc2ncc(F)c(-c3cnc(C)n3C3CCOCC3)n2)cn1` [Example 28, N-(6-{[Ethyl(2-methoxyethyl)amino]methyl}pyridin-3-yl)-5-fluoro-4-[2-methyl-1-(tetrahydro-2H-pyran-4-yl)-1H-imidazol-5-yl]pyrimidin-2-amine], the Ki was 280 nM.
To `Cc1ncc(-c2nc(Nc3ccc(CNCC#N)nc3)ncc2F)n1C1CCOCC1` [Example 29, ({[5-({5-Fluoro-4-[2-methyl-1-(tetrahydro-2H-pyran-4-yl)-1H-imidazol-5-yl]pyrimidin-2-yl}amino)pyridin-2-yl]methyl}amino)acetonitrile] belongs 48 nM.
In the case of `Cc1ncc(-c2nc(Nc3cncc4ccccc34)ncc2F)n1C1CCOCC1` [Example 30, {5-Fluoro-4-[2-methyl-3-(tetrahydro-pyran-4-yl)-3H-imidazol-4-yl]-pyrimidin-2-yl}-isoquinolin-4-yl-amine], the Ki is 200 nM.
To `Cc1ncc(-c2nc(Nc3ccncc3)ncc2F)n1C1CCOCC1` [Example 31, {5-Fluoro-4-[2-methyl-3-(tetrahydro-pyran-4-yl)-3H-imidazol-4-yl]-pyrimidin-2-yl}-pyridin-4-yl-amine] belongs 39 nM.
